{"source": "patent US9446039B2", "about": "“Aminoheteroaryl compounds as MTH1 inhibitors” (CEMM—FORSCHUNGSZENTRUM FÜR MOLEKULARE MEDIZIN GMBH, priority 2012, dated 2016)", "key": {"[1]": {"molecular_target": "SW480 colon carcinoma cells lysate proteins (Homo sapiens, UniProt Q06210)", "sequence (Q06210 whole entry)": "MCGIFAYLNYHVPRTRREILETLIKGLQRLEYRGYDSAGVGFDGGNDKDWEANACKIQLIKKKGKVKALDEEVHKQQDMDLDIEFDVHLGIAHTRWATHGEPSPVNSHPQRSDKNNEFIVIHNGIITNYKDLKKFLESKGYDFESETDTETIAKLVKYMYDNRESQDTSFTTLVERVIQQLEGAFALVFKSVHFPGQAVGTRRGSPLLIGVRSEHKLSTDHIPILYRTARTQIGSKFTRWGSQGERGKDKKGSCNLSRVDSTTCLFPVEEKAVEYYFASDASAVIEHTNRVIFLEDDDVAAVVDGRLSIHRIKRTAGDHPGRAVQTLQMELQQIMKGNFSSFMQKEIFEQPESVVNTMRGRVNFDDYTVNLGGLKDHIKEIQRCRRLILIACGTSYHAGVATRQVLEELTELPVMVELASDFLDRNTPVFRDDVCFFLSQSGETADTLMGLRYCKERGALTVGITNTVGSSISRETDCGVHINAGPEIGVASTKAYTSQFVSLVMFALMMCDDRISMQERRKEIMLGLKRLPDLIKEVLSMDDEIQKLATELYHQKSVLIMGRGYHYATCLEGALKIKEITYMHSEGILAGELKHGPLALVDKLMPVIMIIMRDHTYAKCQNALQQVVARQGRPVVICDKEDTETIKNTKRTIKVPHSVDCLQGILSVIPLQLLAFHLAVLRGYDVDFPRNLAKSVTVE", "format": "binding", "settings": "PreyGene GFPT1; SW480 cells"}, "[2]": {"molecular_target": "T1, SW480 colon carcinoma cells lysate proteins (Homo sapiens, UniProt P26639)", "T1 sequence (P26639 1-723)": "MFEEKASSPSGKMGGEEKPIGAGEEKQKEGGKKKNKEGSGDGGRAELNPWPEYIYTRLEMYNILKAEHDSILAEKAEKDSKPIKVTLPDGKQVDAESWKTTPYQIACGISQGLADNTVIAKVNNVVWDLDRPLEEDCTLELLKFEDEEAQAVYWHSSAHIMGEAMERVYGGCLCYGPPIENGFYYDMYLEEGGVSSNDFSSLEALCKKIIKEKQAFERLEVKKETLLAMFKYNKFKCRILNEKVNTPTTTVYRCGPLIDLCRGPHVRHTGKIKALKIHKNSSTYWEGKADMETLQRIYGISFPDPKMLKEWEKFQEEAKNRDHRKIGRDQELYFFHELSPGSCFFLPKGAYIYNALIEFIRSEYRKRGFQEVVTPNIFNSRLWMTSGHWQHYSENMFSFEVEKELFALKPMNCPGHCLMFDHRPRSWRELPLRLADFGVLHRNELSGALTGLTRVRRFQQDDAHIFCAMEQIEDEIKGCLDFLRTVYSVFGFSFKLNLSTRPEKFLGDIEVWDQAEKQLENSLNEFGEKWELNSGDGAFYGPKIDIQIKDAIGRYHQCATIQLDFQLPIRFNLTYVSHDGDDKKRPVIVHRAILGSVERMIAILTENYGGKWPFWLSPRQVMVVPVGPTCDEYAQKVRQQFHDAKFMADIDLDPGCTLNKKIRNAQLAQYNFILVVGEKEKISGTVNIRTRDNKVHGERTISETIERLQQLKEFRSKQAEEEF", "format": "binding", "settings": "PreyGene TARS"}, "[3]": {"molecular_target": "SW480 colon carcinoma cells lysate proteins (Homo sapiens, UniProt P07355)", "sequence (P07355 whole entry)": "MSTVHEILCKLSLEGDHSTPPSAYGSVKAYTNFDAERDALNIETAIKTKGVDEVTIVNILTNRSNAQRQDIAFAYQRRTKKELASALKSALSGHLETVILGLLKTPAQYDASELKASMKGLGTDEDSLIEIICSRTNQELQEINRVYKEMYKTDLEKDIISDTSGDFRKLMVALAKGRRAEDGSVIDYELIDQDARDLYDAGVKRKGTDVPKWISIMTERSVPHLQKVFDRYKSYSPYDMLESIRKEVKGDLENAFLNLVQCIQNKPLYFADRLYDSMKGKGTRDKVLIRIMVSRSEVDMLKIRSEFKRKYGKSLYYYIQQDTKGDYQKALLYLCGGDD", "format": "binding", "settings": "PreyGene ANXA2"}, "[4]": {"tested_on": "SW480 colon carcinoma cells lysate proteins", "format": "binding, human", "settings": "PreyGene EIF3C, EIF3CL; SW480 cells"}, "[5]": {"molecular_target": "T2, SW480 colon carcinoma cells lysate proteins (Homo sapiens, UniProt P14174)", "T2 sequence (P14174 1-115)": "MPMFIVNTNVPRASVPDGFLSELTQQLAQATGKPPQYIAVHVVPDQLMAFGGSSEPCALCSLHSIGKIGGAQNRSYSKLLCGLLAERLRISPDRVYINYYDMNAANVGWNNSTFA", "format": "binding", "settings": "PreyGene MIF"}, "[6]": {"molecular_target": "SW480 colon carcinoma cells lysate proteins (Homo sapiens, UniProt P63313)", "sequence (P63313 whole entry)": "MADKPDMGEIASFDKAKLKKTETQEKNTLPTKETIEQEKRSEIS", "format": "binding", "settings": "PreyGene TMSB10"}, "[7]": {"molecular_target": "SW480 colon carcinoma cells lysate proteins (Homo sapiens, UniProt Q92688)", "sequence (Q92688 whole entry)": "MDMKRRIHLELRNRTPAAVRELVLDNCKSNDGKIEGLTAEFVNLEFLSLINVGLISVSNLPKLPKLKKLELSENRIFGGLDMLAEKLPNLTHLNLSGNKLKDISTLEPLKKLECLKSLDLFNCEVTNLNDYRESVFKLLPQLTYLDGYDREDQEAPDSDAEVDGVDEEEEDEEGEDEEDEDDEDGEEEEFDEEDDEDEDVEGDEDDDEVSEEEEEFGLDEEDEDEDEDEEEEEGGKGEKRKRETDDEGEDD", "format": "binding", "settings": "PreyGene ANP32B"}, "[8]": {"molecular_target": "T3, SW480 colon carcinoma cells lysate proteins (Homo sapiens, UniProt P12081)", "T3 sequence (P12081 1-509)": "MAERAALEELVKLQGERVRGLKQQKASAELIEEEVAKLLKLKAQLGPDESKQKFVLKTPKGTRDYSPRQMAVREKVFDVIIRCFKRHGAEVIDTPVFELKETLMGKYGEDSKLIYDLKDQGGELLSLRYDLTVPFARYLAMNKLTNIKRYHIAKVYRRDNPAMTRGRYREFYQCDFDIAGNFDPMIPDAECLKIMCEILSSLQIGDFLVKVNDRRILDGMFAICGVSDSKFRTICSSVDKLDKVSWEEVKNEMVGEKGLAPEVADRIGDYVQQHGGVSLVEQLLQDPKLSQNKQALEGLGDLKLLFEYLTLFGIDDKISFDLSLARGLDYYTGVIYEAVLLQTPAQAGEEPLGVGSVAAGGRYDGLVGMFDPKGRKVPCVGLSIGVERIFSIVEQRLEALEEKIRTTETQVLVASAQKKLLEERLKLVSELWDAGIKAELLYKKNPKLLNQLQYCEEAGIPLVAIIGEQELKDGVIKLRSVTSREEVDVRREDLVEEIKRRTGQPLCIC", "format": "binding", "settings": "PreyGene HARS"}}, "data": [{"smiles": "C[C@H](Oc1cc(-c2cnn(C3CCNCC3)c2)cnc1N)c1c(Cl)ccc(F)c1Cl", "note": "[(5)-crizotinib]", "values": [{"measurement": "AvgP", "setting": "[1]", "value": 0}, {"measurement": "SC.Exp. 1-1", "setting": "[1]", "value": 1}, {"measurement": "SC.Exp. 1-2", "setting": "[1]", "value": 1}, {"measurement": "SC.Exp. 2-1", "setting": "[1]", "value": 0}, {"measurement": "SC.Exp. 2-2", "setting": "[1]", "value": 0}, {"measurement": "SC.Exp. Sum", "setting": "[1]", "value": 2}, {"measurement": "AvgP", "setting": "[2]", "value": 0.4614}, {"measurement": "SC.Exp. 1-1", "setting": "[2]", "value": 5}, {"measurement": "SC.Exp. 1-2", "setting": "[2]", "value": 4}, {"measurement": "SC.Exp. 2-1", "setting": "[2]", "value": 0}, {"measurement": "SC.Exp. 2-2", "setting": "[2]", "value": 0}, {"measurement": "Sum (SC.Exp.)", "setting": "[2]", "value": 9}, {"measurement": "AvgP", "setting": "[3]", "value": 0.41}, {"measurement": "SC.Exp. 1-1", "setting": "[3]", "value": 13}, {"measurement": "SC.Exp. 1-2", "setting": "[3]", "value": 13}, {"measurement": "SC.Exp. 2-1", "setting": "[3]", "value": 0}, {"measurement": "SC.Exp. 2-2", "setting": "[3]", "value": 0}, {"measurement": "Sum (SC.Exp.)", "setting": "[3]", "value": 26}, {"measurement": "AvgP", "setting": "[4]", "value": 0}, {"measurement": "SC.Exp. 1-1", "setting": "[4]", "value": 4}, {"measurement": "SC.Exp. 1-2", "setting": "[4]", "value": 6}, {"measurement": "SC.Exp. 2-1", "setting": "[4]", "value": 7}, {"measurement": "SC.Exp. 2-2", "setting": "[4]", "value": 7}, {"measurement": "SC.Exp. Sum", "setting": "[4]", "value": 24}, {"measurement": "AvgP", "setting": "[5]", "value": 0.3362}, {"measurement": "SC.Exp. 1-1", "setting": "[5]", "value": 0}, {"measurement": "SC.Exp. 1-2", "setting": "[5]", "value": 1}, {"measurement": "SC.Exp. 2-1", "setting": "[5]", "value": 2}, {"measurement": "SC.Exp. 2-2", "setting": "[5]", "value": 2}, {"measurement": "Sum (SC.Exp.)", "setting": "[5]", "value": 5}, {"measurement": "AvgP", "setting": "[6]", "value": 0.3518}, {"measurement": "SC.Exp. 1-1", "setting": "[6]", "value": 2}, {"measurement": "SC.Exp. 1-2", "setting": "[6]", "value": 2}, {"measurement": "SC.Exp. 2-1", "setting": "[6]", "value": 0}, {"measurement": "SC.Exp. 2-2", "setting": "[6]", "value": 0}, {"measurement": "Sum (SC.Exp.)", "setting": "[6]", "value": 4}, {"measurement": "AvgP", "setting": "[7]", "value": 0.5116}, {"measurement": "SC.Exp. 1-1", "setting": "[7]", "value": 0}, {"measurement": "SC.Exp. 1-2", "setting": "[7]", "value": 1}, {"measurement": "SC.Exp. 2-1", "setting": "[7]", "value": 4}, {"measurement": "SC.Exp. 2-2", "setting": "[7]", "value": 4}, {"measurement": "Sum (SC.Exp.)", "setting": "[7]", "value": 9}, {"measurement": "AvgP", "setting": "[8]", "value": 0.3676}, {"measurement": "SC.Exp. 1-1", "setting": "[8]", "value": 3}, {"measurement": "SC.Exp. 1-2", "setting": "[8]", "value": 3}, {"measurement": "SC.Exp. 2-1", "setting": "[8]", "value": 0}, {"measurement": "SC.Exp. 2-2", "setting": "[8]", "value": 0}, {"measurement": "Sum (SC.Exp.)", "setting": "[8]", "value": 6}]}]}
